Earlier results as cited in patent EP1482795B1, “NEW IMMU[…]” (CORIXA CORPORATION, priority 2002, dated 2003).

Substance: Monophosphoryl lipid A [MPL® immunostimulant]
- doses that can be safely administered to humans: at least 20 µg/kg
- dose levels at which increases in temperature, flu-like symptoms, increasing heart rate and modest decreases in blood pressure can occur (humans, some patients): ≥ 0.01 mg/kg
